{
  "source": "patent US20160193231A1",
  "about": "“RETT SYNDROME AND TREATMENTS THEREFORE” (RETT SYNDROME RESEARCH TRUST, priority 2013, published 2016)",
  "key": {"[1]": {"conditions": "cited from earlier work"}, "[2]": {"conditions": "cited from earlier work", "remark": "listed apart in the source"}, "[3]": {"test_system": "cytochrome p450 enzymes", "conditions": "cited from earlier work"}, "[4]": {"conditions": "in vivo; cited from earlier work"}, "[5]": {"conditions": "cited from earlier work", "remark": "listed apart in the source"}, "[6]": {"test_system": "129.Mecp2^tm1.1Bird/Y mice", "experiment": "Survival (longevity) of treated Mecp2 null male mice", "type": "in vivo, mouse", "conditions": "129.Mecp2^tm1.1Bird/Y males, fluvastatin 3 mg/kg s.c."}, "[7]": {"test_system": "129.Mecp2^tm1.1Bird/Y mice", "experiment": "Serum/plasma cholesterol, Mecp2 null males", "type": "in vivo, mouse", "conditions": "by P70; fluvastatin p=0.001, lovastatin p=0.001"}, "[8]": {"test_system": "129.Mecp2^tm1.1Bird/Y mice", "experiment": "Liver lipid measurement, Mecp2 null males", "type": "in vivo, mouse", "conditions": "P70; fluvastatin p=0.02; lovastatin p=0.386"}, "[9]": {"test_system": "129.Mecp2^tm1.1Bird/Y mice", "experiment": "Accelerating rotarod task, Mecp2 null males", "type": "in vivo, mouse"}, "[10]": {"test_system": "129.Mecp2^tm1.1Bird/Y mice", "experiment": "Open field locomotor activity, Mecp2 null males", "type": "in vivo, mouse"}, "[11]": {"test_system": "MECP2 mutant mice", "experiment": "Trait amelioration / symptom rescue in Mecp2 mutant mice", "type": "in vivo, mouse", "conditions": "for rescue of motor traits and longevity: male mice, drugs sub-cutaneously"}, "[12]": {"test_system": "Mecp2^tm1.1Bird/Y mice", "experiment": "Peripheral fat measures of treated Mecp2 null males", "type": "in vivo, mouse", "conditions": "Example 6/FIG. 9; 25 mg/kg Sub-Q 2x per week", "description": "The preparation of the agents used in this Example was as follows: metformin hydrochloride, was dissolved in saline (Sigma). The day of injection, the metformin was diluted to 18 parts stock solution, 1 part DMSO, and 1 part ethanol, such that the desired dose for a 20 g mouse was given in 100 ul. […] The animals were treated starting at 5 weeks of age until the age of 10 weeks, or for a period of 5 weeks. Body weights were obtained weekly starting at 5 weeks of age prior to treatment, and ending at 10 weeks, at the end of study. Shown in the FIG. 9 are the weights after 3 weeks of treatment (at 8 weeks of age, panel A) and after 5 weeks of treatment (10 weeks of age, panel D)."}, "[13]": {"conditions": "Example 6/FIG. 9, 25 mg/kg Sub-Q (3 mg/kg elsewhere in the source) 2x per week, vs vehicle"}},
  "note": "Counter-ions that a name gives are not always drawn. Like-named read-outs stand apart in the source and are kept apart here.",
  "data": [
    {"smiles": "CC(C)n1c(/C=C/C(O)CC(O)CC(=O)O)c(-c2ccc(F)cc2)c2ccccc21", "note": "(stereo not shown) [fluvastatin]", "values": [
      {"measurement": "Lipophilicity (LogD):", "setting": "[1]", "result": "1.00-1.25"},
      {"measurement": "solubility in water", "setting": "[2]", "result": "soluble in water"},
      {"measurement": "Metabolized by:", "setting": "[3]", "result": "Cyp2C9"},
      {"measurement": "half-life", "setting": "[4]", "result": "approximately 96 hours"},
      {"measurement": "LD50 (oral):", "setting": "[5]; mouse, in vivo, po", "result": ">2000", "unit": "mg/kg"},
      {"measurement": "survival beyond 120 days", "setting": "[6]", "result": 57, "unit": "%"},
      {"measurement": "median longevity", "setting": "[6]; compared to 87 days, p<0.0001", "result": 122, "unit": "days"}
    ]},
    {"smiles": "CC[C@H](C)C(=O)O[C@H]1C[C@@H](C)C=C2C=C[C@H](C)[C@H](CC[C@@H]3C[C@@H](O)CC(=O)O3)[C@H]21", "note": "[lovastatin]", "values": [
      {"measurement": "Lipophilicity (LogD):", "setting": "[1]", "result": "1.75-1.50"},
      {"measurement": "Metabolized by:", "setting": "[3]", "result": "Cyp3A4"},
      {"measurement": "plasma cholesterol", "setting": "[7]", "result": "lowers"},
      {"measurement": "elevated lipid concentration in livers", "setting": "[8]", "result": "ameliorates"},
      {"measurement": "LD50 (oral):", "setting": "[5]; (mouse)", "result": ">1000", "unit": "mg/kg"},
      {"measurement": "Rotarod performance", "setting": "[9]; P56 treated null males vs vehicle, fluvastatin 3 mg/kg s.c. p=0.015, lovastatin […] s.c. p=0.009", "result": "improves"},
      {"measurement": "Open field activity (beam breaks)", "setting": "[10]; P70 treated null males vs vehicle, fluvastatin p=0.026, lovastatin p=0.011", "result": "increased"},
      {"measurement": "rescue of motor traits and longevity", "setting": "[11]", "result": "best rescue"}
    ]},
    {"smiles": "CN(C)C(=N)N=C(N)N", "note": "[metformin, metformin hydrochloride]", "values": [
      {"measurement": "effect on Mecp2^tm1.1Bird/Y mice (FIG. 9 measures)", "setting": "[11]; Example 6, 30 mg/kg IP 2x per week, 5 to 10 weeks of age, vs vehicle", "result": "little effect"}
    ]},
    {"smiles": "CC(C)c1c(C(=O)Nc2ccccc2)c(-c2ccccc2)c(-c2ccc(F)cc2)n1CC[C@@H](O)C[C@@H](O)CC(=O)O", "note": "[atorvastatin]", "values": [
      {"measurement": "rescue of motor traits and longevity", "setting": "[11]", "result": "varying degrees of rescue"}
    ]},
    {"smiles": "O=S(=O)(c1ccccc1)N(CC(F)(F)F)c1ccc(C(O)(C(F)(F)F)C(F)(F)F)cc1", "note": "[T090317]", "values": [
      {"measurement": "peripheral fat measures", "setting": "[12]", "result": "did not appear to improve"},
      {"measurement": "motor performance, rotarod", "setting": "[9]; [13]", "result": "improved motor performance"},
      {"measurement": "motor performance, open field activity", "setting": "[10]; [13]", "result": "improved motor performance"}
    ]},
    {"smiles": "Cl.F/C(COc1ccc2c(c1)[nH]c1ccccc12)=C1/CN2CCC1CC2", "note": "[(E)-2-[2-fluoro-2-(quinuclidin-3-ylidene)ethoxy]-9H-carbazole monohydrochloride]", "values": [
      {"measurement": "improvement of symptoms", "setting": "[11]; Mecp2 mice, drugs targeting squalene synthase or squalene epoxidase", "result": "did not significantly improve symptoms"}
    ]},
    {"smiles": "CCC(C)(C)C(=O)O[C@H]1C[C@@H](C)C=C2C=C[C@H](C)[C@H](CC[C@@H]3C[C@@H](O)CC(=O)O3)[C@H]21", "note": "[simvastatin]", "values": [
      {"measurement": "half-life", "setting": "[4]", "result": "2 to 3", "unit": "h"}
    ]}
  ]
}
